Measured values as given in ChEMBL document CHEMBL1140460, “Design, synthesis, and biological evaluation of triazolopiperazine-based beta-amino amides as potent, orally active dipeptidyl peptidase IV (DPP-4) inhibitors” (Bioorg Med Chem Lett, 2007).

Assays:
[1] = molecular target: Dipeptidyl peptidase 9 (Homo sapiens, UniProt Q86TI2); test: Inhibition of DPP9
[2] = molecular target: Dipeptidyl peptidase 2 (Homo sapiens, UniProt Q9UHL4); test: Inhibition of QPP
[3] = molecular target: Dipeptidyl peptidase 8 (Homo sapiens, UniProt Q6V1X1); test: Inhibition of DPP8
[4] = molecular target: Dipeptidyl peptidase 4 (Homo sapiens, UniProt P27487)
[5] = Plasma clearance in rat; assay type: ADME, organism-based
[6] = (§1) Half life in rat; assay type: ADME, organism-based; settings: in vivo
[7] = Oral bioavailability in rat; assay type: ADME, organism-based; settings: in vivo
[8] = Plasma clearance in dog; assay type: ADME, organism-based, Canis lupus familiaris
[9] = Plasma clearance in rhesus monkey; assay type: ADME, organism-based, Macaca mulatta
[10] = species on record: Rattus norvegicus; test: as §1; assay type: ADME, organism-based; settings: in vivo
[11] = Half life in dog; assay type: ADME, organism-based, Canis lupus familiaris; settings: in vivo
[12] = Half life in rhesus monkey; assay type: ADME, organism-based, Macaca mulatta; settings: in vivo
[13] = Oral bioavailability in dog; assay type: ADME, organism-based, Canis lupus familiaris; settings: in vivo
[14] = Oral bioavailability in rhesus monkey; assay type: ADME, organism-based, Macaca mulatta; settings: in vivo
[15] = test system: Mus musculus; test: Reduction of blood glucose excursion in lean mouse at 0.1 mg/kg by oral glucose tolerance test; assay type: functional; design: scale not given: the % may be the effect or the level left
[16] = test system: Mus musculus; test: Reduction of blood glucose excursion in lean mouse at 3.0 mg/kg by oral glucose tolerance test; assay type: functional; design: scale not given: the % may be the effect or the level left
[17] = test system: Mus musculus; test: Reduction of blood glucose excursion in lean mouse at 1.0 mg/kg by oral glucose tolerance test; assay type: functional; design: scale not given: the % may be the effect or the level left

Sequence of Dipeptidyl peptidase 8 (Q6V1X1 whole entry): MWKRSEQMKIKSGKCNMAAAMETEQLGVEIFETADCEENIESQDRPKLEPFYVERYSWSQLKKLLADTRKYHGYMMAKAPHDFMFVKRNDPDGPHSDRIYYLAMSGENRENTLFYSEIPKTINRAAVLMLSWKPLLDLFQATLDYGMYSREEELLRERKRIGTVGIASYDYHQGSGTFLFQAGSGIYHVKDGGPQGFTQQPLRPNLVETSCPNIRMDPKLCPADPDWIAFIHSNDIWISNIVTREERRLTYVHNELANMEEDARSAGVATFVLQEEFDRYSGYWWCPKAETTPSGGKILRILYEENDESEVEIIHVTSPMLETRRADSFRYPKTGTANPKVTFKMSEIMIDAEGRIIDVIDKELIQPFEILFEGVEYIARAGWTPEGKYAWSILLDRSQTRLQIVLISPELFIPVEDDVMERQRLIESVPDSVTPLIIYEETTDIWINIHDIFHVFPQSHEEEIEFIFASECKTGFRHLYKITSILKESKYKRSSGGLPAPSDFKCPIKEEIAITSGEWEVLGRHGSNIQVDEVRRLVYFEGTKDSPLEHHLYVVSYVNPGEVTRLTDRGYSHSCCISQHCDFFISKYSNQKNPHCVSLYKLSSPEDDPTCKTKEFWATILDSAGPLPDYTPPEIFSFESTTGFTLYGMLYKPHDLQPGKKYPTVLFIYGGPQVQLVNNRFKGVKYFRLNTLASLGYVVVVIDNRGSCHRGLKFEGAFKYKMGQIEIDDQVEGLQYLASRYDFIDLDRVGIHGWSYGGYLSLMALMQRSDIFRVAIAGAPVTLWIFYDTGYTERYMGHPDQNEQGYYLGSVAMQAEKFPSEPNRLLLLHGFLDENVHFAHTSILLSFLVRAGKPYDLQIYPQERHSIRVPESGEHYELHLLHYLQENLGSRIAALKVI
Sequence of Dipeptidyl peptidase 4 (P27487 whole entry): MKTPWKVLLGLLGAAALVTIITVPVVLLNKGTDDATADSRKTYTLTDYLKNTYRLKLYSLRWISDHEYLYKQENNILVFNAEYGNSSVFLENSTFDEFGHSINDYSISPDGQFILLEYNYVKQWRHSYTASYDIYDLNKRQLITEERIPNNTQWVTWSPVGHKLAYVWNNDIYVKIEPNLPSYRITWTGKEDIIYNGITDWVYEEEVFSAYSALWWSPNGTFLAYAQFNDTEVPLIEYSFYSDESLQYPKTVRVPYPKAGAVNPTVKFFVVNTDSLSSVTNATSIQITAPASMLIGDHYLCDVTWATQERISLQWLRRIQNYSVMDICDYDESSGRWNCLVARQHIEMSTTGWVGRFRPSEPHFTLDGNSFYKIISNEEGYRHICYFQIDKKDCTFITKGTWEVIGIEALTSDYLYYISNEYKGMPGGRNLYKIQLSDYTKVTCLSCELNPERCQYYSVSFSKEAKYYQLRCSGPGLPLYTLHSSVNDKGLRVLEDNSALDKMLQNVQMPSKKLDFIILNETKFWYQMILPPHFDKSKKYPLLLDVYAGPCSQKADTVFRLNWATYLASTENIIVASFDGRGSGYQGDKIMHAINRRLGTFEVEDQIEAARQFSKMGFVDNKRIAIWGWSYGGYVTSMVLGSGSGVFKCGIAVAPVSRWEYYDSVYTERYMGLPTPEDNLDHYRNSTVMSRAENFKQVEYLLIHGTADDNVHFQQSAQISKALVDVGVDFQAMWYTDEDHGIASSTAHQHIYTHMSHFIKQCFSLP
Sequence of Dipeptidyl peptidase 9 (Q86TI2 whole entry): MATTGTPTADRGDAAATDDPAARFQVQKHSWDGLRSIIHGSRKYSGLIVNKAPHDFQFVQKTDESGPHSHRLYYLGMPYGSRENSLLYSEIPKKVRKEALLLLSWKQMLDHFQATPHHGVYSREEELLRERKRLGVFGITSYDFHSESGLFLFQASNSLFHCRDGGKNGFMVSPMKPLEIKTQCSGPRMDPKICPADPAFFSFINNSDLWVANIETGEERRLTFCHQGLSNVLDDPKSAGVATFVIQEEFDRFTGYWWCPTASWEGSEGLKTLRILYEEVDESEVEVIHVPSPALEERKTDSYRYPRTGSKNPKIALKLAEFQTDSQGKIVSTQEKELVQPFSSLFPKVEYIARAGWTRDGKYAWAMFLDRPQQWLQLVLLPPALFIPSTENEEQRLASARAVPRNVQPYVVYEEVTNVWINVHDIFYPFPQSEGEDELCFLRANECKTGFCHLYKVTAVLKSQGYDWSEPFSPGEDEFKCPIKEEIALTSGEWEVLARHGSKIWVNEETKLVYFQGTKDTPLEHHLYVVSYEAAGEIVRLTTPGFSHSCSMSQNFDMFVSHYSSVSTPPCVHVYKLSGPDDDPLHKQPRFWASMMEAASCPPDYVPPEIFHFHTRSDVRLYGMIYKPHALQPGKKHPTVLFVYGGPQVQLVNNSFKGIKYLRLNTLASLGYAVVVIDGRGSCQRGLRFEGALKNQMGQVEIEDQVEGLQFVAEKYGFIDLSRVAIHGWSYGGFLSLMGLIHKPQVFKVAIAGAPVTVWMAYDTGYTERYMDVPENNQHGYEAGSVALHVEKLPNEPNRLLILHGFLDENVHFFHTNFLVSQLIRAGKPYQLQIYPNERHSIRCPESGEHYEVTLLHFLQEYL

SMILES | IC50 [1] [µM] | IC50 [2] [µM] | IC50 [3] [µM] | IC50 [4] [µM] | clearance [5] [mL/min/kg] | half-life [6] [h] | bioavailability [7] [%] | further results
N[C@@H](CC(=O)N1CCn2nc(-c3ccccc3)nc2C1)Cc1cc(F)c(F)cc1F | > 100 | – | – | – | – | – | – | –
N[C@@H](CC(=O)N1CCn2ncnc2C1)Cc1cc(F)c(F)cc1F | > 100 | > 100 | > 100 | 0.1 | – | – | – | –
N[C@@H](CC(=O)N1CCn2nc(C(F)(F)F)nc2[C@H]1Cn1cncn1)Cc1cc(F)c(F)cc1F | > 100 | 22 | > 100 | 0.002 | – | – | – | –
N[C@@H](CC(=O)N1CCn2nc(C(F)(F)F)nc2[C@@H]1C(F)C1CC1)Cc1cc(F)c(F)cc1F (stereo in doubt; 34c) | – | 5.77 | > 100 | 0.018 | – | – | – | –
N[C@@H](CC(=O)N1CCn2nc(C(F)(F)F)nc2C1Cn1ccnc1)Cc1cc(F)c(F)cc1F (some centres not stated) | – | 26 | > 100 | – | 97 | 9 | 7.1 | –
N[C@@H](CC(=O)N1CCn2nc(C(F)(F)F)nc2[C@@H]1C(F)C1CC1)Cc1cc(F)c(F)cc1F (stereo in doubt; 34d) | – | 4.1 | > 100 | 0.011 | – | – | – | –
N[C@@H](CC(=O)N1CCn2nc(C(F)(F)F)nc2C1Cn1cccn1)Cc1cc(F)c(F)cc1F (some centres not stated) | > 100 | 9.6 | > 100 | – | 142 | 2.3 | 62 | –
N[C@@H](CC(=O)N1CCn2nc(C(F)(F)F)nc2[C@H]1Cc1ccc(F)cc1)Cc1cc(F)c(F)cc1F | – | – | – | – | 76 | 2.7 | 32 | –
N[C@@H](CC(=O)N1CCn2nc(C(F)(F)F)nc2[C@@H]1C(O)C1CC1)Cc1cc(F)c(F)cc1F (some centres not stated) [listing 1 of 2 here] | > 100 | – | – | – | 91 | 5.1 | 51 | –
N[C@@H](CC(=O)N1CCn2nc(C(F)(F)F)nc2C1)Cc1cc(F)c(F)cc1F | > 100 | – | – | – | 60 | 3.6 | 100 | –
N[C@@H](CC(=O)N1CCn2nc(C(F)(F)F)nc2[C@@H]1C(O)C1CC1)Cc1cc(F)c(F)cc1F (some centres not stated) [listing 2 of 2 here] | > 100 | – | – | – | 97 | 3.9 | 63 | –
N[C@@H](CC(=O)N1CCn2c(nnc2C(F)(F)F)C1)Cc1cc(F)c(F)cc1F [SITAGLIPTIN] | – | – | – | – | 60 | – | – | clearance [8]: 6 mL/min/kg; clearance [9]: 28 mL/min/kg; t1/2 [10]: 1.7 h; half-life [11]: 4.9 h; half-life [12]: 3.7 h; bioavailability [13]: 100%; bioavailability [14]: 68%
C[C@H]1c2nc(C(F)(F)F)nn2CCN1C(=O)C[C@H](N)Cc1cc(F)c(F)cc1F | > 100 | 72 | > 100 | – | – | – | – | –
C[C@@H]1c2nc(C(F)(F)F)nn2CCN1C(=O)C[C@H](N)Cc1cc(F)c(F)cc1F | > 100 | 25 | > 100 | – | 68 | 4 | 74 | clearance [8]: 1 mL/min/kg; clearance [9]: 16 mL/min/kg; half-life [11]: 26 h; half-life [12]: 7.7 h; bioavailability [13]: 67%; bioavailability [14]: 65%; Activity [15]: 14%; Activity [16]: 44%; Activity [17]: 39%
N[C@@H](CC(=O)N1CCn2nc(C(F)(F)F)nc2C1Cn1cncn1)Cc1cc(F)c(F)cc1F (some centres not stated) | > 100 | 49 | > 100 | 0.005 | 129 | 2.8 | 13 | –
N[C@@H](CC(=O)N1CCn2nc(C3CC3)nc2C1)Cc1cc(F)c(F)cc1F | > 100 | > 100 | > 100 | – | – | – | – | –
